# Reference: US9695155B2, “Herbicidal substituted pyrimidinyloxy benzene compounds” (E. I. DU PONT DE NEMOURS AND COMPANY, priority 2013, dated 2017)
# Key:
# canarygrass = assay: Test D preemergence; assay type: in vivo, Phalaris minor; conditions: Phalaris minor, pre-emergence
# How it was run: (§1)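 Solvent/surfactant formulations are sprayed pre (silt loam) or post (1–4 leaf plants, 2–18 cm). Plants stay 7–21 days in controlled conditions before a visual 0–100 score is given.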
# galium [1] = assay: Test D preemergence; assay type: in vivo, Galium aparine; conditions: Galium, pre-emergence
# How it was run: as §1
# green foxtail = assay: Test D preemergence; assay type: in vivo, Setaria viridis; conditions: Setaria viridis, pre-emergence
# How it was run: as §1
# oilseed rape = assay: Test D preemergence; assay type: in vivo, Brassica napus; conditions: Brassica napus, pre-emergence
# How it was run: as §1
# pigweed [2] = assay: Test D preemergence; assay type: in vivo, Amaranthus retroflexus; conditions: Amaranthus retroflexus, pre-emergence
# How it was run: as §1
# chamomile = assay: Test D preemergence; assay type: in vivo, Matricaria inodora; conditions: Tripleurospermum inodorum, pre-emergence
# How it was run: as §1
# speedwell = assay: Test D preemergence; assay type: in vivo, Veronica persica; conditions: Veronica persica, pre-emergence
# How it was run: as §1
# galium [3] = assay: Test D postemergence; assay type: in vivo, Galium aparine; conditions: Galium, post-emergence
# How it was run: as §1
# field violet = assay: Test D postemergence; assay type: in vivo, Viola arvensis; conditions: Viola arvensis, post-emergence
# How it was run: as §1
# pigweed [4] = assay: Test D postemergence; assay type: in vivo, Amaranthus retroflexus; conditions: Amaranthus retroflexus, post-emergence
# How it was run: as §1
# soybean = assay: Test E postemergence; assay type: in vivo, Glycine max; conditions: Glycine max, post-emergence
# How it was run: (§2)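 Test chemicals formulated in a non-phytotoxic solvent mixture containing a surfactant were applied preemergence to seeds in silt loam soil or postemergence to plants at the 1- to 4-leaf stage in potting mix. After 14 to 21 days in a greenhouse, injury was visually rated against controls on a 0-100 scale (0 = no effect, 100 = complete control).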
# hairy beggarticks = assay: Test E postemergence; assay type: in vivo, Bidens pilosa; conditions: Bidens pilosa, post-emergence, read-out: Plant response rating, Beggarticks
# How it was run: as §2
# [5] = Postemergence, 31 g ai/ha, scale 0 to 100
# [6] = Postemergence, 62 g ai/ha, scale 0 to 100
# [7] = Postemergence, 125 g ai/ha, scale 0 to 100
# [8] = postemergence, 8 g ai/ha, scale 0 to 100, 0 no effect, 100 complete control
# [9] = postemergence, 16 g ai/ha, scale 0 to 100, 0 no effect, 100 complete control
smiles,measurement,setting,value
"Clc1cnc(Oc2ccccc2-n2cc(Br)cn2)nc1 [Compound 7, 2-[2-(4-bromo-1H-pyrazol-1-yl)phenoxy]-5-chloropyrimidine]",pest or weed control at 16 g/ha,"canarygrass; 16 g ai/ha, scale 0 (no effect) to 100 (complete control), read-out: Plant response rating, Canarygrass",0%
same,pest or weed control at 31 g/ha,"canarygrass; 31 g ai/ha, scale 0-100, read-out: Plant response rating, Canarygrass",0%
same,pest or weed control at 62 g/ha,"canarygrass; 62 g ai/ha, scale 0-100, read-out: Plant response rating, Canarygrass",0%
same,pest or weed control at 125 g/ha,"canarygrass; 125 g ai/ha, scale 0-100, read-out: Plant response rating, Canarygrass",0%
same,pest or weed control at 250 g/ha,"canarygrass; 250 g ai/ha, scale 0-100, read-out: Plant response rating, Canarygrass",25%
same,pest or weed control at 16 g/ha,"galium [1]; 16 g ai/ha, scale 0 (no effect) to 100 (complete control), read-out: Plant response rating, Galium",0%
same,pest or weed control at 31 g/ha,"galium [1]; 31 g ai/ha, scale 0-100, read-out: Plant response rating, Galium",0%
same,pest or weed control at 62 g/ha,"galium [1]; 62 g ai/ha, scale 0-100, read-out: Plant response rating, Galium",20%
same,pest or weed control at 125 g/ha,"galium [1]; 125 g ai/ha, scale 0-100, read-out: Plant response rating, Galium",30%
same,pest or weed control at 250 g/ha,"galium [1]; 250 g ai/ha, scale 0-100, read-out: Plant response rating, Galium",40%
same,pest or weed control at 16 g/ha,"green foxtail; 16 g ai/ha, scale 0 (no effect) to 100 (complete control), read-out: Plant response rating, Foxtail, Green",0%
same,pest or weed control at 31 g/ha,"green foxtail; 31 g ai/ha, scale 0-100, read-out: Plant response rating, Foxtail, Green",0%
same,pest or weed control at 62 g/ha,"green foxtail; 62 g ai/ha, scale 0-100, read-out: Plant response rating, Foxtail, Green",0%
same,pest or weed control at 125 g/ha,"green foxtail; 125 g ai/ha, scale 0-100, read-out: Plant response rating, Foxtail, Green",0%
same,pest or weed control at 250 g/ha,"green foxtail; 250 g ai/ha, scale 0-100, read-out: Plant response rating, Foxtail, Green",20%
same,plant injury at 16 g/ha,"oilseed rape; 16 g ai/ha, scale 0 (no effect) to 100 (complete control), read-out: Plant response rating, Oilseed Rape",0%
same,plant injury at 31 g/ha,"oilseed rape; 31 g ai/ha, scale 0-100, read-out: Plant response rating, Oilseed Rape",10%
same,plant injury at 62 g/ha,"oilseed rape; 62 g ai/ha, scale 0-100, read-out: Plant response rating, Oilseed Rape",25%
same,plant injury at 125 g/ha,"oilseed rape; 125 g ai/ha, scale 0-100, read-out: Plant response rating, Oilseed Rape",100%
same,plant injury at 250 g/ha,"oilseed rape; 250 g ai/ha, scale 0-100, read-out: Plant response rating, Oilseed Rape",100%
same,pest or weed control at 16 g/ha,"pigweed [2]; 16 g ai/ha, scale 0 (no effect) to 100 (complete control), read-out: Plant response rating, Pigweed",0%
same,pest or weed control at 31 g/ha,"pigweed [2]; 31 g ai/ha, scale 0 (no effect) to 100 (complete control), read-out: Plant response rating, Pigweed",30%
same,pest or weed control at 62 g/ha,"pigweed [2]; 62 g ai/ha, scale 0-100, read-out: Plant response rating, Pigweed",90%
same,pest or weed control at 125 g/ha,"pigweed [2]; 125 g ai/ha, scale 0-100, read-out: Plant response rating, Pigweed",90%
same,pest or weed control at 250 g/ha,"pigweed [2]; 250 g ai/ha, scale 0-100, read-out: Plant response rating, Pigweed",90%
same,pest or weed control at 16 g/ha,"chamomile; 16 g ai/ha, scale 0 (no effect) to 100 (complete control), read-out: Plant response rating, Chamomile",0%
same,pest or weed control at 31 g/ha,"chamomile; 31 g ai/ha, scale 0-100, read-out: Plant response rating, Chamomile",0%
same,pest or weed control at 62 g/ha,"chamomile; 62 g ai/ha, scale 0-100, read-out: Plant response rating, Chamomile",0%
same,pest or weed control at 125 g/ha,"chamomile; 125 g ai/ha, scale 0-100, read-out: Plant response rating, Chamomile",20%
same,pest or weed control at 250 g/ha,"chamomile; 250 g ai/ha, scale 0-100, read-out: Plant response rating, Chamomile",25%
same,pest or weed control at 16 g/ha,"speedwell; 16 g ai/ha, scale 0 (no effect) to 100 (complete control), read-out: Plant response rating, Speedwell",20%
same,pest or weed control at 31 g/ha,"speedwell; 31 g ai/ha, scale 0 (no effect) to 100 (complete control), read-out: Plant response rating, Speedwell",50%
same,pest or weed control at 62 g/ha,"speedwell; 62 g ai/ha, scale 0-100, read-out: Plant response rating, Speedwell",100%
same,pest or weed control at 125 g/ha,"speedwell; 125 g ai/ha, scale 0-100, read-out: Plant response rating, Speedwell",100%
same,pest or weed control at 250 g/ha,"speedwell; 250 g ai/ha, scale 0-100, read-out: Plant response rating, Speedwell",100%
same,pest or weed control at 16 g/ha,"galium [3]; 16 g ai/ha, scale 0-100, read-out: Plant response rating, Galium",20%
same,pest or weed control at 31 g/ha,"galium [3]; 31 g ai/ha, scale 0 to 100 (0 no effect, 100 complete control), read-out: Plant response rating, Galium",40%
same,pest or weed control at 62 g/ha,"galium [3]; 62 g ai/ha, scale 0 to 100 (0 no effect, 100 complete control), read-out: Plant response rating, Galium",70%
same,pest or weed control at 125 g/ha,"galium [3]; 125 g ai/ha, scale 0 to 100 (0 no effect, 100 complete control), read-out: Plant response rating, Galium",80%
same,pest or weed control at 250 g/ha,"galium [3]; 250 g ai/ha, scale 0 to 100 (0 no effect, 100 complete control), read-out: Plant response rating, Galium",90%
same,pest or weed control at 16 g/ha,"field violet; 16 g ai/ha, scale 0-100, read-out: Plant response rating, Field Violet",10%
same,pest or weed control at 31 g/ha,"field violet; 31 g ai/ha, scale 0 to 100 (0 no effect, 100 complete control), read-out: Plant response rating, Field Violet",20%
same,pest or weed control at 62 g/ha,"field violet; 62 g ai/ha, scale 0 to 100 (0 no effect, 100 complete control), read-out: Plant response rating, Field Violet",70%
same,pest or weed control at 125 g/ha,"field violet; 125 g ai/ha, scale 0 to 100 (0 no effect, 100 complete control), read-out: Plant response rating, Field Violet",70%
same,pest or weed control at 250 g/ha,"field violet; 250 g ai/ha, scale 0 to 100 (0 no effect, 100 complete control), read-out: Plant response rating, Field Violet",70%
same,pest or weed control at 16 g/ha,"pigweed [4]; 16 g ai/ha, scale 0-100, read-out: Plant response rating, Pigweed",70%
same,pest or weed control at 31 g/ha,"pigweed [4]; 31 g ai/ha, scale 0 to 100 (0 no effect, 100 complete control), read-out: Plant response rating, Pigweed",90%
same,pest or weed control at 62 g/ha,"pigweed [4]; 62 g ai/ha, scale 0 to 100 (0 no effect, 100 complete control), read-out: Plant response rating, Pigweed",100%
same,pest or weed control at 125 g/ha,"pigweed [4]; 125 g ai/ha, scale 0 to 100 (0 no effect, 100 complete control), read-out: Plant response rating, Pigweed",100%
same,pest or weed control at 250 g/ha,"pigweed [4]; 250 g ai/ha, scale 0 to 100 (0 no effect, 100 complete control), read-out: Plant response rating, Pigweed",100%
same,"plant response (crop injury) rating, soybean, 0-100 scale at 31 g/ha",soybean; [5],90%
same,"plant response (crop injury) rating, soybean, 0-100 scale at 62 g/ha",soybean; [6],98%
same,"plant response (crop injury) rating, soybean, 0-100 scale at 125 g/ha",soybean; [7],98%
same,"plant response (crop injury) rating, soybean, 0-100 scale at 8 g/ha",soybean; [8],60%
same,"plant response (crop injury) rating, soybean, 0-100 scale at 16 g/ha",soybean; [9],80%
same,pest or weed control at 31 g/ha,hairy beggarticks; [5],40%
same,pest or weed control at 62 g/ha,hairy beggarticks; [6],50%
same,pest or weed control at 125 g/ha,hairy beggarticks; [7],60%
same,pest or weed control at 8 g/ha,hairy beggarticks; [8],25%
same,pest or weed control at 16 g/ha,hairy beggarticks; [9],35%
